Laboratory results from article PMC3179181 (Journal of medicinal chemistry, 2010).
Entries after “also recorded” stand apart in the source; their conditions may differ.

What was measured:
PLD2 [1] = molecular target: T1, PLD2 (Homo sapiens, UniProt O14939)
PLD1 = molecular target: T2, PLD1 (Homo sapiens, UniProt Q13393); assay: cell-based
T2 sequence (Q13393 1-1074): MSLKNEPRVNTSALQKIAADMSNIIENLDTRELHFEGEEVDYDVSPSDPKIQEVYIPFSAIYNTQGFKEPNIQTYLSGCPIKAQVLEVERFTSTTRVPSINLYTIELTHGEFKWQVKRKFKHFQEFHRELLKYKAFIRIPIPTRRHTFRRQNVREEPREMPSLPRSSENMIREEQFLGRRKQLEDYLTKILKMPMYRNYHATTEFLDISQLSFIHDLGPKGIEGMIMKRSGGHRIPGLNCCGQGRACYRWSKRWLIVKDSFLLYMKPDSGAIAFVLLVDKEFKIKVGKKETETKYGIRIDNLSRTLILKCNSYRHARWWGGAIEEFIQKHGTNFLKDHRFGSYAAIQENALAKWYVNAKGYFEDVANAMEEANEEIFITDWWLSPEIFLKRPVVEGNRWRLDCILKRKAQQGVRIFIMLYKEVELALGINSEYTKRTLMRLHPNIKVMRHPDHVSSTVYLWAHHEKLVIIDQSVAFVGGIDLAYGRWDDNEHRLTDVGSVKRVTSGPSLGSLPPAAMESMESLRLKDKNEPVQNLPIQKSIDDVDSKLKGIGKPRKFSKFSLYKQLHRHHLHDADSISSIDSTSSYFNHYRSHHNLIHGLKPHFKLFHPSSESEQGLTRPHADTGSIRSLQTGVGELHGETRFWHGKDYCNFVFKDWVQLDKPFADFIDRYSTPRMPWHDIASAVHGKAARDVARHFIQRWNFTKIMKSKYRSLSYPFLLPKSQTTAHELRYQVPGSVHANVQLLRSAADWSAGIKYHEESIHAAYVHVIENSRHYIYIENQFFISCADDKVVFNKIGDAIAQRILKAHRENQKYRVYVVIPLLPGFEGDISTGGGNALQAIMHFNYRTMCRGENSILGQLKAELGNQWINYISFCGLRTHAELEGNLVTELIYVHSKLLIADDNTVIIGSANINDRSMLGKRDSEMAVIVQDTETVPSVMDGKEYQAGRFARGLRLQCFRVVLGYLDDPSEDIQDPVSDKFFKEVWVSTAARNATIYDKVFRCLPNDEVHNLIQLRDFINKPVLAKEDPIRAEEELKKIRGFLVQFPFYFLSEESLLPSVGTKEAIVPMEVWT

PLD2 [2] = molecular target: T1, PLD2; assay: cell-based
[3] = rat
Caspase 3 and 7 = assay: Caspase 3/7 activity; type: cell-based; conditions: 48 hours, 10 μM, versus vehicle; for Caspase 3 and 7 activity: serum free

T1 sequence (O14939 whole entry): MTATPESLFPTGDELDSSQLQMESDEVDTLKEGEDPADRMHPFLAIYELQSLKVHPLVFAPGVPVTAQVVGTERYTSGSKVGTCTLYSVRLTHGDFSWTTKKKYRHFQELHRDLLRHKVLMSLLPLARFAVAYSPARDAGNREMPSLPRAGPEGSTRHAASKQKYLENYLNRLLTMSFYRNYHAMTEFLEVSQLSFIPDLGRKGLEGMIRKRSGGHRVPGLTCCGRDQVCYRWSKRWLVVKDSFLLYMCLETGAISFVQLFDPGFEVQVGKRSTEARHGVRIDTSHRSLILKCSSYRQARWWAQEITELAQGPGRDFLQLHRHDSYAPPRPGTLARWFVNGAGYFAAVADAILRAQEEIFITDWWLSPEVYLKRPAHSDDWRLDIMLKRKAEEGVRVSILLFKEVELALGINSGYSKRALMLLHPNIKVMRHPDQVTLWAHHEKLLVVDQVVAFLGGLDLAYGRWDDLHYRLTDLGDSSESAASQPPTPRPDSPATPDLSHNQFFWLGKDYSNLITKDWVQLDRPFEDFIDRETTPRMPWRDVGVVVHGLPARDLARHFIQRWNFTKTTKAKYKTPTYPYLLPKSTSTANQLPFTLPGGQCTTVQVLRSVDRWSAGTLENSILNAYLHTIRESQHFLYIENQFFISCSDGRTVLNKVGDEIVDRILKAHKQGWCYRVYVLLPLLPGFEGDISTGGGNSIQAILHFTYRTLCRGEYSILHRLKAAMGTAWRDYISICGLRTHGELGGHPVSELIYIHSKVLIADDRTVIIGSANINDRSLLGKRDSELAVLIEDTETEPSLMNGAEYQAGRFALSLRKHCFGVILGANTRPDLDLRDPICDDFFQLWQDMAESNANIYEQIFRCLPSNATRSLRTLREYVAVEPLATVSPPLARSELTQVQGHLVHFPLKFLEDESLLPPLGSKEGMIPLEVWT

SMILES | Fold PLD2 Selective (PLD2 [1]) [fold] | IC50 (PLD1) [nM] | IC50 (PLD2 [2]) [nM] | plasma protein binding (% bound) [3] [% bound] | Caspase 3 and 7 activity (Caspase 3 and 7) | increase in Caspase 3 and 7 activity (Caspase 3 and 7; 10% FBS)
C[C@@H](CN1CCC2(CC1)C(=O)NCN2c1ccc(F)c(F)c1)NC(=O)c1ccc2ccccc2c1.O=C(O)C(F)(F)F [24a, (S)-N-(1-(1-(3,4-difluorophenyl)-4-oxo-1,3,8-triazaspiro[4.5]decan-8-yl)propan-2-yl)-2-naphthamide 2,2,2-trifluoroacetate] | 23 | 2800 | 120 | – | – | –
O=C(NCCN1CCC2(CC1)C(=O)NCN2c1cccc(F)c1)c1ccc2ccccc2c1 [22a, N-(2-(1-(3-fluorophenyl)-4-oxo-1,3,8-triazaspiro[4.5]decan-8-yl)ethyl)-2-naphthamide] | – | – | – | 97.9 | increased Caspase 3 & 7 activity | –
C[C@@H](CN1CCC(n2c(=O)[nH]c3cc(Br)ccc32)CC1)NC(=O)[C@H]1C[C@@H]1c1ccccc1 [compound 14] | – | – | – | – | increased Caspase 3 & 7 activity | marginal increase; also recorded: fairly resistant to PLD inhibitor treatment
